Reference: patent US11352350B2, “IRAK degraders and uses thereof” (Kymera Therapeutics, Inc., priority 2018, dated 2022)

Legend:
Wistar Strain rats = assay: MSU induced gouty arthritis (knee inflammation) in rats; assay type: in vivo; settings: prophylactic treatment, MSU-induced knee inflammation rat model
Procedure: The anti-inflammatory efficacy and pain reduction for prophylactic treatment in an MSU-induced knee inflammation rat model of human gout was evaluated. See Kou, Y-Y et al., Evid-Based Compl. Alt. (doi: http://dx.doi.org/10.1155/2015/527019).
Preparation of MSU crystals: 4 g uric acid is dissolved in 800 ml 0.03N NaOH and heated to 60° C. NaOH is added as required to maintain pH 8.9. The solution is stored overnight at 4-8° C. Crystals are filtered, washed and dried. Crystals are suspended in sterile saline just prior to use.
Efficacy Study: Receive and quarantine 70 Wistar Strain rats (male, 250-300 g). Following quarantine, rats are accepted for the Study if no signs of clinical distress are noted during the 3-day quarantine period. […] The rat weights are recorded. […] Baseline readings are taken on DAY −3. Baseline knee diameters are measured by digital caliper. Baseline responses to mechanical allodynia, as measured by von Frey fibers, are recorded. […]
DAY 1: Rats are weighed and dosed as in Table 14. One hour after dosing, mechanical allodynia and knee diameters are measured and recorded.
DAY 2: Rats are weighed and dosed as in Table 14 One hour after dosing, mechanical allodynia and knee diameters are measured and recorded. […]
Results are tabulated, graphed and statistically analyzed for anti-inflammatory efficacy and pain reduction.

TMD8 tumor cells = assay: TMD8 large B lymphoma xenograft model in C.B. 17 SCID mice; assay type: in vivo, mouse; settings: FIG. 6 A-C
Procedure: Cell Culture: The OCI-LY10 or TMD8 tumor cells were maintained as suspension in RPMI1640 medium supplemented with 10% fetal bovine serum, 100 U/mL penicillin and 100 μg/mL streptomycin at 37° C. in an atmosphere of 5% CO2 in air. The tumor cells were routinely subcultured twice weekly by trypsin-EDTA treatment. The cells growing in an exponential growth phase were harvested and counted for tumor inoculation.
Animals: C.B. 17 SCID, female, 6-8 weeks, weighing approximately 16-18 g were used. Animals were housed and maintained according to IACUC protocols. […]
Assignment to Groups: Before commencement of treatment, all animals were weighed and the tumor volumes were measured. […]
Observation: After tumor inoculation, the animals were checked daily for morbidity and mortality. […] Mortality and observed clinical signs were recorded for individual animals in detail.
Data Collection: Tumor volumes were measured in two dimensions using a caliper, and the volumes were expressed in mm^3 using the formula: “V=(L×W×W)/2, where V is tumor volume, L is tumor length (the longest tumor dimension) and W is tumor width (the longest tumor dimension perpendicular to L).
At termination: At pre-determined time points based on study design, animals were humanely sacrificed by CO2. […] Compound was determined in tumor and plasma using LC/MS with calibrated standards.

| Compound | knee joint swelling (Wistar Strain rats; FIG. 17 A) | pain sensitivity (Wistar Strain rats; FIG. 17 B) | activity in TMD8 xenograft model (TMD8 tumor cells) |
| --- | --- | --- | --- |
| CN(C[C@H]1CC[C@H](n2cc(NC(=O)c3coc(-c4ccnc(NCC5CC5)c4)n3)c(C(F)F)n2)CC1)C1CCN(Cc2cccc3c2n(C)c(=O)n3C2CCC(=O)NC2=O)CC1 (stereo partly drawn) [I-75, 2-(2-((cyclopropylmethyl)amino)pyridin-4-yl)-N-(3-(difluoromethyl)-1-((1r,4r)-4-(((1-((1-(2,6-dioxopiperidin-3-yl)-3-methyl-2-oxo-2,3-dihydro-1H-benzo[d]imidazol-4-yl)methyl)piperidin-4-yl)(methyl)amino)methyl)cyclohexyl)-1H-pyrazol-4-yl)oxazole-4-carboxamide] | decreasing knee joint swelling | analgesic effect |  |
| CN(CCCOCCCc1cccc2c1n(C)c(=O)n2C1CCC(=O)NC1=O)C[C@H]1CC[C@H](n2cc(NC(=O)c3coc(-c4ccnc(NCC5CC5)c4)n3)c(C(F)F)n2)CC1 (mixture of isomers) [I-30, 2-[2-(Cyclopropylmethylamino)-4-pyridyl]-N-[3-(difluoromethyl)-1-[4-[[3-[3-[1-(2,6-dioxo-3-piperidyl)-3-methyl-2-oxo-benzimidazol-4-yl]propoxy]propyl-methyl-amino]methyl]cyclohexyl]pyrazol-4-yl] oxazole-4-carboxamide] |  |  | active |
